{"source": "ChEMBL document CHEMBL2440042", "about": "“Anti-proliferative activity of hydnocarpin, a natural lignan, is associated with the suppression of Wnt/β-catenin signaling pathway in colon cancer cells” (Bioorg Med Chem Lett, 2013)", "key": {"[1]": {"tested_on": "SW480", "assay": "Inhibition of Wnt/beta-catenin signaling pathway in human SW480 cells assessed as beta-catenin protein expression at 5 uM after 12 hrs by Western blotting analysis relative to vehicle-treated control"}, "[2]": {"tested_on": "SW480", "assay": "Inhibition of Wnt/beta-catenin signaling pathway in human SW480 cells after 24 hrs by TOPflash luciferase reporter gene assay relative to vehicle-treated control", "type": "cell-based"}, "[3]": {"tested_on": "SW480", "assay": "Inhibition of Wnt/beta-catenin signaling pathway in human SW480 cells assessed as beta-catenin protein expression at 10 uM after 24 hrs by Western blotting analysis relative to vehicle-treated control"}, "[4]": {"tested_on": "SW480", "assay": "Antiproliferative activity against human SW480 cells assessed as growth inhibition after 72 hrs by SRB assay", "type": "functional, cell-based", "conditions": "SW480, 72 h"}, "[5]": {"tested_on": "SW480", "assay": "Inhibition of Wnt/beta-catenin signaling pathway in human SW480 cells assessed as dvl3 protein expression at 10 uM after 24 hrs by Western blotting analysis relative to vehicle-treated control"}, "[6]": {"tested_on": "SW480", "assay": "Inhibition of Wnt/beta-catenin signaling pathway in human SW480 cells assessed as Axin1 protein expression at 10 uM after 24 hrs by Immunoblotting analysis relative to vehicle-treated control"}, "[7]": {"tested_on": "SW480", "assay": "Inhibition of Wnt/beta-catenin signaling pathway in human SW480 cells assessed as dvl1 protein expression at 5 uM after 12 hrs by Western blotting analysis relative to vehicle-treated control"}, "[8]": {"tested_on": "SW480", "assay": "Inhibition of Wnt/beta-catenin signaling pathway in human SW480 cells assessed as beta-catenin protein expression at 5 uM after 24 hrs by Western blotting analysis relative to vehicle-treated control"}, "[9]": {"tested_on": "SW480", "assay": "Inhibition of Wnt/beta-catenin signaling pathway in human SW480 cells assessed as phosphorylated (S45) beta-catenin protein expression at 20 uM after 24 hrs by Western blotting analysis relative to vehicle-treated control"}, "[10]": {"tested_on": "HEK293", "assay": "Inhibition of Wnt/beta-catenin signaling pathway in human HEK293 cells at 20 uM after 24 hrs by dual luciferase reporter gene assay relative to vehicle-treated control", "conditions": "HEK293, 24 h"}, "[11]": {"tested_on": "SW480", "assay": "Inhibition of Wnt/beta-catenin signaling pathway in human SW480 cells assessed as Axin2 protein expression at 10 uM after 12 hrs by Western blotting analysis relative to vehicle-treated control"}, "[12]": {"tested_on": "SW480", "assay": "Inhibition of Wnt/beta-catenin signaling pathway in human SW480 cells assessed as Axin1 protein expression at 5 uM after 24 hrs by Western blotting analysis relative to vehicle-treated control"}, "[13]": {"tested_on": "SW480", "assay": "Inhibition of Wnt/beta-catenin signaling pathway in human SW480 cells assessed as Axin1 protein expression at 10 uM after 24 hrs by Western blotting analysis relative to vehicle-treated control"}, "[14]": {"molecular_target": "Axin1/beta-catenin (Homo sapiens) (UniProt P35222+O15169)", "assay": "Increase in axin1-beta-catenin interaction in human SW480 cells at 5 to 10 uM after 24 hrs by immunoprecipitation", "type": "cell-based"}, "[15]": {"tested_on": "SW480", "assay": "Inhibition of Wnt/beta-catenin signaling pathway in human SW480 cells assessed as dvl2 protein expression at 5 uM after 24 hrs by Western blotting analysis relative to vehicle-treated control"}, "[16]": {"tested_on": "SW480", "assay": "Inhibition of Wnt/beta-catenin signaling pathway in human SW480 cells assessed as Axin2 protein expression at 20 uM after 24 hrs by Western blotting analysis relative to vehicle-treated control"}, "[17]": {"tested_on": "SW480", "assay": "Inhibition of Wnt/beta-catenin signaling pathway in human SW480 cells assessed as phosphorylated (S45) beta-catenin protein expression at 5 uM after 24 hrs by Western blotting analysis relative to vehicle-treated control"}, "[18]": {"tested_on": "SW480", "assay": "Inhibition of Wnt/beta-catenin signaling pathway in human SW480 cells assessed as CK1-alpha protein expression at 20 uM after 24 hrs by Western blotting analysis relative to vehicle-treated control"}, "[19]": {"tested_on": "SW480", "assay": "Inhibition of Wnt/beta-catenin signaling pathway in human SW480 cells assessed as Axin1 protein expression at 20 uM after 12 hrs by Western blotting analysis relative to vehicle-treated control"}, "[20]": {"tested_on": "SW480", "assay": "Inhibition of Wnt/beta-catenin signaling pathway in human SW480 cells assessed as dvl3 protein expression at 5 uM after 12 hrs by Western blotting analysis relative to vehicle-treated control"}, "[21]": {"tested_on": "SW480", "assay": "Inhibition of Wnt/beta-catenin signaling pathway in human SW480 cells assessed as GSK3-beta protein expression at 5 uM after 12 hrs by Western blotting analysis relative to vehicle-treated control"}, "[22]": {"tested_on": "SW480", "assay": "Inhibition of Wnt/beta-catenin signaling pathway in human SW480 cells assessed as beta-catenin protein expression at 10 uM after 12 hrs by Western blotting analysis relative to vehicle-treated control"}, "[23]": {"tested_on": "SW480", "assay": "Inhibition of Wnt/beta-catenin signaling pathway in human SW480 cells assessed as dvl3 protein expression at 5 uM after 24 hrs by Western blotting analysis relative to vehicle-treated control"}, "[24]": {"tested_on": "SW480", "assay": "Inhibition of Wnt/beta-catenin signaling pathway in human SW480 cells assessed as CK1-alpha protein expression at 10 uM after 24 hrs by Western blotting analysis relative to vehicle-treated control"}, "[25]": {"tested_on": "SW480", "assay": "Inhibition of Wnt/beta-catenin signaling pathway in human SW480 cells assessed as dvl1 protein expression at 5 uM after 24 hrs by Western blotting analysis relative to vehicle-treated control"}, "[26]": {"tested_on": "SW480", "assay": "Inhibition of Wnt/beta-catenin signaling pathway in human SW480 cells assessed as GSK3-beta protein expression at 5 uM after 24 hrs by Western blotting analysis relative to vehicle-treated control"}, "[27]": {"tested_on": "SW480", "assay": "Inhibition of Wnt/beta-catenin signaling pathway in human SW480 cells assessed as Axin1 protein expression at 10 uM after 12 hrs by Western blotting analysis relative to vehicle-treated control"}, "[28]": {"tested_on": "SW480", "assay": "Inhibition of Wnt/beta-catenin signaling pathway in human SW480 cells assessed as beta-catenin protein expression at 20 uM after 24 hrs by Western blotting analysis relative to vehicle-treated control"}, "[29]": {"tested_on": "SW480", "assay": "Inhibition of Wnt/beta-catenin signaling pathway in human SW480 cells assessed as increase in phosphorylation of beta-catenin at Ser45 after 12 hrs by Western blotting analysis relative to vehicle-treated control", "type": "cell-based"}, "[30]": {"tested_on": "SW480", "assay": "Inhibition of Wnt/beta-catenin signaling pathway in human SW480 cells assessed as dvl2 protein expression at 20 uM after 24 hrs by Western blotting analysis relative to vehicle-treated control"}, "[31]": {"tested_on": "SW480", "assay": "Inhibition of Wnt/beta-catenin signaling pathway in human SW480 cells assessed as dvl1 protein expression at 20 uM after 12 hrs by Western blotting analysis relative to vehicle-treated control"}, "[32]": {"tested_on": "SW480", "assay": "Effect on total beta-catenin protein level in human SW480 cells at 5 to 20 uM after 12 to 24 hrs by Western blotting analysis relative to vehicle-treated control", "type": "functional, cell-based"}, "[33]": {"tested_on": "SW480", "assay": "Inhibition of Wnt/beta-catenin signaling pathway in human SW480 cells assessed as Axin2 protein expression at 5 uM after 24 hrs by Western blotting analysis relative to vehicle-treated control"}, "[34]": {"tested_on": "SW480", "assay": "Inhibition of Wnt/beta-catenin signaling pathway in human SW480 cells assessed as CK1-alpha protein expression at 10 uM after 12 hrs by Western blotting analysis relative to vehicle-treated control"}}, "note": "Calls of active or inactive are those of the source. The rule behind the calls is not given here.", "data": [{"smiles": "COc1cc([C@H]2Oc3ccc(-c4cc(=O)c5c(O)cc(O)cc5o4)cc3O[C@@H]2CO)ccc1O", "note": "(relative stereo)", "values": [{"measurement": "fold change (FC)", "setting": "[1]", "result": 0.8}, {"measurement": "inhibition", "setting": "[2]", "result": "Dose-dependent effect"}, {"measurement": "fold change (FC)", "setting": "[3]", "result": 0.8}, {"measurement": "IC50", "setting": "[4]", "result": 20.3, "unit": "µM"}, {"measurement": "fold change (FC)", "setting": "[5]", "result": 1}, {"measurement": "fold change (FC)", "setting": "[6]", "result": 1.5}, {"measurement": "fold change (FC)", "setting": "[7]", "result": 1.2}, {"measurement": "fold change (FC)", "setting": "[8]", "result": 0.8}, {"measurement": "fold change (FC)", "setting": "[9]", "result": 2.4}, {"measurement": "inhibition at 20 µM", "setting": "[10]", "result": 61.6, "unit": "%"}, {"measurement": "fold change (FC)", "setting": "[11]", "result": 3.4}, {"measurement": "fold change (FC)", "setting": "[12]", "result": 1.7}, {"measurement": "fold change (FC)", "setting": "[13]", "result": 3.5}, {"measurement": "Activity", "setting": "[14]", "result": "Active"}, {"measurement": "fold change (FC)", "setting": "[15]", "result": 1.2}, {"measurement": "fold change (FC)", "setting": "[16]", "result": 6.7}, {"measurement": "fold change (FC)", "setting": "[17]", "result": 1.4}, {"measurement": "fold change (FC)", "setting": "[18]", "result": 1.1}, {"measurement": "fold change (FC)", "setting": "[19]", "result": 2.7}, {"measurement": "fold change (FC)", "setting": "[20]", "result": 1}, {"measurement": "fold change (FC)", "setting": "[21]", "result": 0.8}, {"measurement": "fold change (FC)", "setting": "[22]", "result": 0.7}, {"measurement": "fold change (FC)", "setting": "[23]", "result": 1.2}, {"measurement": "fold change (FC)", "setting": "[24]", "result": 1.2}, {"measurement": "fold change (FC)", "setting": "[25]", "result": 1}, {"measurement": "fold change (FC)", "setting": "[26]", "result": 1.1}, {"measurement": "fold change (FC)", "setting": "[27]", "result": 2.2}, {"measurement": "fold change (FC)", "setting": "[28]", "result": 0.7}, {"measurement": "inhibition", "setting": "[29]", "result": "Dose-dependent effect"}, {"measurement": "fold change (FC)", "setting": "[30]", "result": 1.2}, {"measurement": "fold change (FC)", "setting": "[31]", "result": 1.1}, {"measurement": "Activity", "setting": "[32]", "result": "inactive"}, {"measurement": "fold change (FC)", "setting": "[33]", "result": 1.8}, {"measurement": "fold change (FC)", "setting": "[34]", "result": 0.9}]}]}
